Active and inactive are the calls of the source. No cut-off for these calls is given here.
What was measured:
[1] = Cytotoxicity against rat H9c2 cells assessed as inhibition of cell growth incubated for 48 hrs by MTT assay; format: toxicity, cell-based
[2] = tested on: Jurkat; experiment: Cytotoxicity against human Jurkat cells assessed as inhibition of cell growth incubated for 48 hrs by MTT assay; format: functional, cell-based
[3] = tested on: HCC1937; experiment: Cytotoxicity against human HCC1937 cells assessed as inhibition of cell growth incubated for 48 hrs by MTT assay; format: functional, cell-based; settings: HCC1937, 48 h
[4] = tested on: MDA-MB-231; experiment: Cytotoxicity against human MDA-MB-231 cells assessed as inhibition of cell growth incubated for 48 hrs by MTT assay; format: functional, cell-based; settings: MDA-MB-231, 48 h
[5] = tested on: 4T1; experiment: Cytotoxicity against mouse 4T1 cells assessed as inhibition of cell growth incubated for 48 hrs by MTT assay; format: functional, cell-based; settings: 4T1, 48 h, read-out: IC50
[6] = tested on: MCF7; experiment: Induction of mitochondrial respiration in human MCF7 cells assessed as increase in oxygen consumption rate at 1 uM in presence of LEAK state by high-resolution fluorespirometry analysis; format: functional, cell-based
[7] = tested on: 4T1; experiment: Induction of mitochondrial respiration in mouse 4T1 cells assessed as increase in oxygen consumption rate at 1 uM in presence of LEAK state by high-resolution fluorespirometry analysis; format: functional, cell-based
[8] = tested on: HCC1937; experiment: Induction of mitochondrial respiration in human HCC1937 cells assessed as increase in oxygen consumption rate at 1 uM in presence of LEAK state by high-resolution fluorespirometry analysis; format: functional, cell-based
[9] = tested on: Jurkat; experiment: Induction of mitochondrial respiration in human Jurkat cells assessed as increase in oxygen consumption rate at 1 uM in presence of LEAK state by high-resolution fluorespirometry analysis; format: functional, cell-based
[10] = tested on: MCF7; experiment: Induction of mitochondrial respiration in human MCF7 cells assessed as increase in oxygen consumption rate at 1 uM in presence of OXPHOS state by high-resolution fluorespirometry analysis; format: functional, cell-based
[11] = tested on: 4T1; experiment: Induction of mitochondrial respiration in mouse 4T1 cells assessed as increase in oxygen consumption rate at 1 uM in presence of OXPHOS state by high-resolution fluorespirometry analysis; format: functional, cell-based
[12] = tested on: HCC1937; experiment: Induction of mitochondrial respiration in human HCC1937 cells assessed as increase in oxygen consumption rate at 1 uM in presence of OXPHOS state by high-resolution fluorespirometry analysis; format: functional, cell-based
[13] = tested on: Jurkat; experiment: Induction of mitochondrial respiration in human Jurkat cells assessed as increase in oxygen consumption rate at 1 uM in presence of OXPHOS state by high-resolution fluorespirometry analysis; format: functional, cell-based
[14] = tested on: MCF7; experiment: Induction of ROS production in human MCF7 cells at 1 uM in presence of pyruvate and malate by high-resolution fluorespirometry analysis; format: functional, cell-based
[15] = tested on: 4T1; experiment: Induction of ROS production in mouse 4T1 cells at 1 uM in presence of pyruvate and malate by high-resolution fluorespirometry analysis; format: functional, cell-based
[16] = tested on: HCC1937; experiment: Induction of ROS production in human HCC1937 cells at 1 uM in presence of pyruvate and malate by high-resolution fluorespirometry analysis; format: functional, cell-based
[17] = tested on: Jurkat; experiment: Induction of ROS production in human Jurkat cells at 1 uM in presence of pyruvate and malate by high-resolution fluorespirometry analysis; format: functional, cell-based
[18] = tested on: 4T1; experiment: Induction of ROS production in mouse 4T1 cells assessed as decrease in NAD+/NADH ratio at 1 uM incubated for 20 mins by fluorescence cell counter analysis; format: functional, cell-based
[19] = tested on: 4T1; experiment: Induction of ROS production in mouse 4T1 cells assessed as decrease in NAD+ level at 1 uM incubated for 20 mins by fluorescence cell counter analysis; format: functional; design: scale not given: the % may be the effect or the level left
[20] = tested on: 4T1; experiment: Induction of ROS production in mouse 4T1 cells assessed as decrease in NADH level at 1 uM incubated for 20 mins by fluorescence cell counter analysis; format: functional; design: scale not given: the % may be the effect or the level left
[21] = tested on: H9c2; experiment: Induction of ROS production in rat H9c2 cells assessed as decrease in NAD+ level at 1 uM incubated for 20 mins by fluorescence cell counter analysis; format: functional, cell-based
[22] = tested on: H9c2; experiment: Induction of ROS production in rat H9c2 cells assessed as decrease in NADH level at 1 uM incubated for 20 mins by fluorescence cell counter analysis; format: functional, cell-based
[23] = tested on: H9c2; experiment: Induction of ROS production in rat H9c2 cells assessed as decrease in NAD+/NADH ratio at 1 uM incubated for 20 mins by fluorescence cell counter analysis; format: functional, cell-based
[24] = molecular target: T1, Pyruvate kinase PKM (Homo sapiens, UniProt P14618); experiment: Inhibition of PKM2 (unknown origin) by ITC analysis
Target sequence in this assay (P14618 whole entry): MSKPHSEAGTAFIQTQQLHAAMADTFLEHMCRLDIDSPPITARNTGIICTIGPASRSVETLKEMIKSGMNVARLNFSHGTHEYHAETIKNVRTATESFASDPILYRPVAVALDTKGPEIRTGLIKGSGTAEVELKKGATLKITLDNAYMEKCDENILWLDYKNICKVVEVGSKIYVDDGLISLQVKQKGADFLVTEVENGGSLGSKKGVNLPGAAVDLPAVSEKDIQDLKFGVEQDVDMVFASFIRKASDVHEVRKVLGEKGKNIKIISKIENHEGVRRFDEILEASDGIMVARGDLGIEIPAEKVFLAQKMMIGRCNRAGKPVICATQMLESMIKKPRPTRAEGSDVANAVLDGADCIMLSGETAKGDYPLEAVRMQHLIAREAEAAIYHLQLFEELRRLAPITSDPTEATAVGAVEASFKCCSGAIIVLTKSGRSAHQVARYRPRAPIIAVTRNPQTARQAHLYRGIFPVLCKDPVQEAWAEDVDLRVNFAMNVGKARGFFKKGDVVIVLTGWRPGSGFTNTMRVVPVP

[25] = molecular target: T1, Pyruvate kinase PKM; experiment: Inhibition of N-terminal his8-tagged PKM2 (unknown origin)
Target sequence in this assay (P14618 whole entry): as above

[26] = molecular target: T1, Pyruvate kinase PKM; experiment: Inhibition of N-terminal his8-tagged PKM2 (unknown origin) in presence of FBP by Michaelis-menten analysis
Target sequence in this assay (P14618 whole entry): as above

[27] = molecular target: T1, Pyruvate kinase PKM; experiment: Inhibition of PKM1 (unknown origin); design: concentration or dose not given beside the values; settings: concentration not given here
Target sequence in this assay (P14618 2-531 limits assumed): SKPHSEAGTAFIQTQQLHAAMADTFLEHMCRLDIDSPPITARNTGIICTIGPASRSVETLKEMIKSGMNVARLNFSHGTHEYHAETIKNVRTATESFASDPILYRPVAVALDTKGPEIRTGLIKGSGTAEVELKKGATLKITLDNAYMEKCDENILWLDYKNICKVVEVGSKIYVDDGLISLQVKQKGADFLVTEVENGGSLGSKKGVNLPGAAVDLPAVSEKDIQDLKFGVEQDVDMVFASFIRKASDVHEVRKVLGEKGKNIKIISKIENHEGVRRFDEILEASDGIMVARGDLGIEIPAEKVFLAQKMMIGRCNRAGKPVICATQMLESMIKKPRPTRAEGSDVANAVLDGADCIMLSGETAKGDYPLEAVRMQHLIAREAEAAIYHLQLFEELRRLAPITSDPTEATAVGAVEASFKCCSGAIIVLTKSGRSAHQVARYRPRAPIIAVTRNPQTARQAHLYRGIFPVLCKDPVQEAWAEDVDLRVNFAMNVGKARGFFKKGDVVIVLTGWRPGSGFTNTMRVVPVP

[28] = organism: Oryctolagus cuniculus; experiment: Inhibition of rabbit LDH at 1 uM relative to control
[29] = Binding affinity to Sprague-Dawley rat liver Cardiolipin incubated for 10 mins by microplate reader analysis; format: tissue-based
[30] = molecular target: T1, Pyruvate kinase PKM; experiment: Inhibition of PKM2 (unknown origin) assessed as increase in tetramer ratio by analytical size-exclusion chromatography; settings: dose 5.0 µM
Target sequence in this assay (P14618 2-531 limits assumed): as above

[31] = tested on: 4T1; experiment: Downregulation of PKM2 mRNA expression in mouse 4T1 cells at 0.25 to 0.5 uM incubated for 24 hrs by qPCR analysis; format: functional, cell-based; settings: dose 0.25-0.5 µM
[32] = Downregulation of PKM2 mRNA expression in human HCC1937 cells assessed as fold change at 0.25 uM incubated for 24 hrs by qPCR analysis; format: functional
[33] = Downregulation of PKM2 mRNA expression in human HCC1937 cells assessed as fold change at 0.5 uM incubated for 24 hrs by qPCR analysis; format: functional
[34] = tested on: HCC1937; experiment: Downregulation of PKM1 mRNA expression in human HCC1937 cells at 0.25 to 5 uM incubated for 24 hrs by qPCR analysis; format: functional, cell-based; settings: dose 0.25-5 µM
[35] = tested on: MCF7; experiment: cells; settings: Homo sapiens, MCF7, 48 h
Description: Cytotoxicity against human MCF7 cells assessed as inhibition of cell growth incubated for 48 hrs by MTT assay

[36] = tested on: A549; experiment: cells; settings: Homo sapiens, A549, 48 h
Description: Cytotoxicity against human A549 cells assessed as inhibition of cell growth incubated for 48 hrs by MTT assay

[37] = molecular target: Pyruvate kinase PKLR (Homo sapiens) (UniProt P30613); experiment: Inhibition of PKR (unknown origin) at 1 uM relative to control
Pyruvate kinase PKLR (Homo sapiens), sequence (P30613 whole entry, looked up): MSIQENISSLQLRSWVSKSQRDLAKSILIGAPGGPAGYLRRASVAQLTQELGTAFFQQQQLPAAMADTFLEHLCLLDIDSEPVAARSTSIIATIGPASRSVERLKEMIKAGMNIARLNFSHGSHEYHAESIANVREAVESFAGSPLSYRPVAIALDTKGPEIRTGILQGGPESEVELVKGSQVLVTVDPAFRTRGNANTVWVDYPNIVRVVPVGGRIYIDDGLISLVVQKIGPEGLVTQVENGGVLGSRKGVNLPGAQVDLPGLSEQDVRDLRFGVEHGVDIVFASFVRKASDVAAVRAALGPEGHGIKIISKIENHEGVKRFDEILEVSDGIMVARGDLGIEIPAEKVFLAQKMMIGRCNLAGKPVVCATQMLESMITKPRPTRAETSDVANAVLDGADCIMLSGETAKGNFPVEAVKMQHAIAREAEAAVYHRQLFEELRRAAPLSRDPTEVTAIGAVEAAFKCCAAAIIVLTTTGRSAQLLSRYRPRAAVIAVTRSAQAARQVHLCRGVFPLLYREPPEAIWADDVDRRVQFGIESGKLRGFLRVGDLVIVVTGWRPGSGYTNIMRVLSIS

## COC(=O)c1cc[n+]2[se]c(C3(O)CCCCC3)c(Br)c2c1.[Cl-]
[1]
  IC50 at 48 h: 2.46 µM
[2]
  IC50: 0.44 µM
[3]
  IC50: 0.33 µM
[4]
  IC50: 0.51 µM
[5]
  IC50: 0.32 µM
[6]
  Activity: Active
[7]
  Activity: Active
[8]
  Activity: Active
[9]
  Activity: Active
[10]
  Activity: Active
[11]
  Activity: Active
[12]
  Activity: Active
[13]
  Activity: Active
[14]
  Activity: Active
[15]
  Activity: Active
[16]
  Activity: Active
[17]
  Activity: Active
[18]
  Activity: inactive
[19]
  Activity: 42.8%
[20]
  Activity: 57.4%
[21]
  Activity: inactive
[22]
  Activity: inactive
[23]
  Activity: inactive
[24]
  IC50: 0.25 µM
[25]
  IC50: 0.35 µM
[26]
  IC50: 0.477 µM
[27]
  inhibition: 13%
[27]; tested as the 2H-labelled form
  inhibition: 10%
[28]
  inhibition: 10%
[28]; tested as the 2H-labelled form
  inhibition: 13%
[29]
  EC50: 3490 µM
[30]
  inhibition: Dose-Dependent Effect
[31]
  Activity: Active
[32]
  fold change (FC): 4
[33]
  fold change (FC): 20
[34]
  Activity: inactive
[35]
  IC50: 1.16 µM
[36]
  IC50: 1.3 µM
[37]
  inhibition: 21%
[37]; tested as the 2H-labelled form
  inhibition: 16%
